Experimental data from patent US4321265A, “7α-Methoxycephalosporins” (Toyama Chemical Co., Ltd., priority 1977, dated 1982).
Values after ≈ are worked out from the molar mass of the structure shown. Like-named read-outs stand apart in the source and are kept apart here.

Key:
[1] = system: S. marcescens W-35; assay: Infection-protective activity in mice; assay type: in vivo, ICR-strain mice (male); conditions: subcutaneous, one hour after intraperitoneal inoculation; challenge dose 2.5 × 10^5 cells/mouse; ICR mice
Description: Four-week old ICR-strain mice (male) in groups, each group consisting of five mice, were inoculated intraperitoneally with a prescribed quantity of a pathogenic bacterium suspended in 5% mucin. After one hour from the inoculation, the mice were subcutaneously administered with the test preparation to determine the infection-protective activity. The figures in Table 4 represent the protective activity in terms of ED50.

[2] = molecular target: T1, β-lactamase (cephalosporinase, E. coli GN-5482) (Escherichia coli, UniProt P00811); assay: Inhibitory dose to β-lactamase, iodometric method of Perret, Cefazolin as substrate; assay type: biochemical
T1 construct: producing bacteria; endogenous in cells; host or cells: E. coli GN-5482

[3] = Toxicity (LD50); conditions: mouse, in vivo; ICR-strain mice; intravenous
Description: The 7α-methoxycephalosporins of this invention are low-toxic.

[4] = molecular target: T2, β-lactamase (cephalosporinase, C. freundii GN-346) (Citrobacter freundii, UniProt P05193); assay: Inhibitory dose to β-lactamase, iodometric method of Perret, Cefazolin as substrate; assay type: biochemical; conditions: read-out: Inhibitory dose to β-lactamase (ID50) (converted)
T2 construct: producing bacteria; endogenous in cells; host or cells: C. freundii GN-346

[5] = system: Ser. marcescens W-35; assay: Minimum inhibitory concentration (MIC), Heart Infusion agar; assay type: cell-based; conditions: Serratia marcescens, W35, 20 h, S. marcescens W-35, read-out: MIC
Description: Antibacterial activities of the representative compounds (Ib) of the 7α-methoxycephalosporins according to this invention are shown in Table 1. [drawing 20]
The figures given in Table 1 represent the minimum inhibitory concentration (MIC in mcg/ml) of each compound, which was determined according to the method described in "Chemotherapy (Society of Chemotherapy, Japan), Vol. 16, 98-99 (1968)": A culture obtained by cultivating the test bacterium in a Heart Infusion broth (Eiken Kagaku Co.) was inoculated into a Heart Infusion agar medium (Eiken Kagaku Co.). After 20 hours of the incubation at 37° C., the growth of the bacterium was inspected to determine the minimum inhibitory concentration (MIC in mcg/ml). […]
(1) Minimum inhibitory concentration (MIC in mcg/ml).

[6] = molecular target: T3, β-lactamase (cephalosporinase, S. marcescens W-8) (Serratia marcescens, UniProt P18539); assay: Inhibitory dose to β-lactamase, iodometric method of Perret, Cefazolin as substrate; assay type: biochemical; conditions: read-out: Inhibitory dose to β-lactamase (ID50) (converted)
T3 construct: producing bacteria; endogenous in cells; host or cells: S. marcescens W-8

[7] = system: Penicillinase (P. aeruginosa GN-3379); assay: Stability to β-lactamase, iodometry (Perret); assay type: biochemical; conditions: P. aeruginosa GN-3379 penicillinase; PCG = 100; 30° C., pH 7.0
Description: (§1) The stability to β-lactamase was examined by iodometry at 30° C. by the method of Perret (Perret, C. J., "Iodometric assay of penicillinase", Nature, 174, 1012-1013 (1954)), except that a 0.1 M phosphate buffer solution (pH 7.0) was used in place of the 0.2 M phosphate buffer solution (pH 6.5). The stability of each compound was shown in Table 2 in terms of relative degree of hydrolysis, assuming the stability of Cephaloridin (CER) to cephalosporinase as 100 and the stability of Penicillin G (PCG) to penicillinase as 100.

[8] = system: Penicillinase (E. coli TK-3); assay: Stability to β-lactamase, iodometry (Perret); assay type: biochemical; conditions: E. coli TK-3 penicillinase; PCG = 100; 30° C., pH 7.0
Description: as §1

[9] = system: Penicillinase (K. pneumoniae Y-4); assay: Stability to β-lactamase, iodometry (Perret); assay type: biochemical; conditions: K. pneumoniae Y-4 penicillinase; PCG = 100; 30° C., pH 7.0
Description: as §1

[10] = molecular target: T4, Cephalosporinase (S. marcescens W-8) (Serratia marcescens, UniProt P18539); assay: Stability to β-lactamase, iodometry (Perret); assay type: biochemical; conditions: S. marcescens W-8 cephalosporinase; CER = 100; 30° C., pH 7.0
T4 construct: native preparation, details not in excerpts
Description: as §1

[11] = molecular target: T5, Cephalosporinase (E. coli GN-5482) (Escherichia coli, UniProt P00811); assay: Stability to β-lactamase, iodometry (Perret); assay type: biochemical; conditions: E. coli GN-5482 cephalosporinase; CER = 100; 30° C., pH 7.0
T5 construct: native preparation, details not in excerpts
Description: as §1

T5 sequence (P00811 20-377): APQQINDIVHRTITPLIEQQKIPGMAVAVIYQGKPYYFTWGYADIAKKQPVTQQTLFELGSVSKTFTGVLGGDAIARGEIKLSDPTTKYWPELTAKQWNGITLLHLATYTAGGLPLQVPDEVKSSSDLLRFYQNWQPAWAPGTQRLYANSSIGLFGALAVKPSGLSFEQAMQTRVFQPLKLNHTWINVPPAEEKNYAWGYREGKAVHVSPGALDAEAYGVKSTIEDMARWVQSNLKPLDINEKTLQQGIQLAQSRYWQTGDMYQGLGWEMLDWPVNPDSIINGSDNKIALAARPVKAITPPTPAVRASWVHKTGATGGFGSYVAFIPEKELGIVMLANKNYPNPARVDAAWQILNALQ
T1 sequence (P00811 20-377): as above
T2 sequence (P05193 21-381): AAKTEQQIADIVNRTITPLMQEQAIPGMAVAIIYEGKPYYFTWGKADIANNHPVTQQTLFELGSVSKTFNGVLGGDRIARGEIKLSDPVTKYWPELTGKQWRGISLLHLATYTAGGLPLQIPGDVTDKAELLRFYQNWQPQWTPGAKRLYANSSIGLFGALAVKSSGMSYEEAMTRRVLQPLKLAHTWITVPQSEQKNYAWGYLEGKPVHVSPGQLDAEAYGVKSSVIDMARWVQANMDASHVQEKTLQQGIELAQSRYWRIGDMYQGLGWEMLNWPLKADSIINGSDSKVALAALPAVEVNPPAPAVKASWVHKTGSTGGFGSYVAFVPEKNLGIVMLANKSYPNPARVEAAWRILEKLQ
T3 sequence (P18539 22-376): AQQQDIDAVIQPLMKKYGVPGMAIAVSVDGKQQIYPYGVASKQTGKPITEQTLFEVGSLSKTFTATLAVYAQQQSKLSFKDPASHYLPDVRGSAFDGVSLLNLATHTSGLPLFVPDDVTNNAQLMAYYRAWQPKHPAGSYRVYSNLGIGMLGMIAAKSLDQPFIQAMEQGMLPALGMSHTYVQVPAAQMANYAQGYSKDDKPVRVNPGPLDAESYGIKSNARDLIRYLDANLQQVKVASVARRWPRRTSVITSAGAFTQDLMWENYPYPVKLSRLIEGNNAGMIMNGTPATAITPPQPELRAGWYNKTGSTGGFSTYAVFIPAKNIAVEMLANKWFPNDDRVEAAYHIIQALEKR
T4 sequence (P18539 22-376): as above

Compound: CCN1CCN(C(=O)NC(C(=O)N[C@]2(OC)C(=O)N3C(C(=O)O)=C(CSc4nnnn4C)CS[C@@H]32)c2cccs2)C(=O)C1=O (stereo partly drawn) [Example T-1414]
- ED50 (infection-protective activity) [1]: 0.84 mg/mouse
- IC50 [2]: 1230 nM
- LD50 [3]: ≥ 5000 mg/kg
- IC50 [4]: 2550 nM
- MIC ([5]; inoculated bacteria quantity 10^6 cells/ml (Table 4)): 6.25 µg/mL (≈ 9.39 µM)
- MIC ([5]; inoculated bacteria quantity 10^8 cells/ml (Table 4)): 12.5 µg/mL (≈ 18.8 µM)
- IC50 [6]: 811 nM
- Stability to β-lactamase, relative degree of hydrolysis [7]: 0.03
- Stability to β-lactamase, relative degree of hydrolysis [8]: < 0.003
- Stability to β-lactamase, relative degree of hydrolysis [9]: < 0.09
- Stability to β-lactamase, relative degree of hydrolysis [10]: 0.02
- Stability to β-lactamase, relative degree of hydrolysis [11]: < 0.1
